Reference: patent publication US10052330B2, “Substituted pyrido[3,4-b]pyrazines as Syk inhibitors” (HUTCHISON MEDIPHARMA LIMITED, priority 2011, dated 2018)
pIC50: −log10 of the molar value.

Experiments:
RBL-2H3 cells = assay: IgE-induced Beta-hexosaminidase secretion in RBL-2H3 cells; format: cell-based; conditions: Rattus norvegicus, RBL-2H3, RBL-2H3 cells sensitized with SPE-7, stimulated with DNP-BSA; upper bound of each range is 'less than'; read-out: IC50, IgE-induced Beta-hexosaminidase secretion
Syk kinase = Syk kinase (Homo sapiens, UniProt P43405); assay: Syk kinase enzymatic assay (Kit-Tyr 2 Peptide); format: biochemical; conditions: 8 concentrations, 1 μM down to 0.0003 μM; upper bound of each range is 'less than'; read-out: IC50: Enzymatic Activity (Syk kinase)

Compound	pIC50 (RBL-2H3 cells)	pIC50 (Syk kinase)
CN1CCN(c2ccc(-c3cc4nccnc4c(NCCCN)n3)cc2)CC1 [Compound 186]	6.00 to 7.00	7.00 to 9.00
NCCCNc1nc(-c2ccc(N3CCOCC3)nc2)cc2nccnc12 [Compound 194]	6.00 to 7.00	6.00 to 7.00
FC1(F)CCNCC1CNc1nc(-c2ccc(N3CCOCC3)c(Cl)c2)cc2nccnc12 (centres unmarked) [Compound 205]	7.00 to 9.00	7.00 to 9.00
CC1CN(c2ccc(-c3cc4nccnc4c(NC[C@@H]4CNCCO4)n3)cc2)CCO1 (some centres unmarked) [Compound 208]	7.00 to 9.00	7.00 to 9.00
CCN1CCN(c2ccc(-c3cc4nccnc4c(NCC4CNCCO4)n3)cc2)CC1 (centres unmarked) [Compound 215]	7.00 to 9.00	7.00 to 9.00
OCCN1CCN(c2ccc(-c3cc4nccnc4c(NCC4CNCCO4)n3)cc2)CC1 (centres unmarked) [Compound 216]	7.00 to 9.00	7.00 to 9.00
CC(C)(O)CN1CCN(c2ccc(-c3cc4nccnc4c(NCC4CNCCO4)n3)cc2)CC1 (centres unmarked) [Compound 217]	7.00 to 9.00	7.00 to 9.00
c1cnc2c(NC[C@@H]3CNCCO3)nc(-c3ccc(N4CCCOCC4)cc3)cc2n1 [Compound 218]	7.00 to 9.00	7.00 to 9.00
Fc1cc(-c2cc3nccnc3c(NC[C@@H]3CNCCO3)n2)ccc1N1CCCOCC1 [Compound 219]	7.00 to 9.00	7.00 to 9.00
c1cnc2c(NCC3CNCCCO3)nc(-c3ccc(N4CCOCC4)cc3)cc2n1 (centres unmarked) [Compound 220]	6.00 to 7.00	6.00 to 7.00
Cc1cc(-c2cc3nccnc3c(NCC3CNCCCO3)n2)ccc1N1CCOCC1 (centres unmarked) [Compound 221]	7.00 to 9.00	7.00 to 9.00
Fc1cc(-c2cc3nccnc3c(NCC3CNCCCO3)n2)ccc1N1CCOCC1 (centres unmarked) [Compound 222]	6.00 to 7.00	6.00 to 7.00
Clc1cc(-c2cc3nccnc3c(NCC3CNCCCO3)n2)ccc1N1CCOCC1 (centres unmarked) [Compound 223]	6.00 to 7.00	6.00 to 7.00
FC1(F)CCN(c2ccc(-c3cc4nccnc4c(NC[C@@H]4CNCCO4)n3)cc2)C1 [Compound 226]	7.00 to 9.00	7.00 to 9.00
CN(c1ccc(-c2cc3nccnc3c(NCC3CNCCO3)n2)cc1)S(C)(=O)=O (centres unmarked) [Compound 228]	6.00 to 7.00	7.00 to 9.00
FC1(F)CCN(c2ccc(-c3cc4nccnc4c(NC[C@@H]4CNCCO4)n3)cc2)CC1 [Compound 229]	7.00 to 9.00	7.00 to 9.00
F[C@H]1CCN(c2ccc(-c3cc4nccnc4c(NCC4CNCCO4)n3)cc2)C1 (some centres unmarked) [Compound 231]	7.00 to 9.00	7.00 to 9.00
Cn1ccc2cc(-c3cc4nccnc4c(NC[C@@H]4CNCCO4)n3)cnc21 [Compound 234]	6.00 to 7.00	6.00 to 7.00
Cn1ccc2cc(-c3cc4nccnc4c(NC[C@@H]4CNCCO4)n3)ccc21 [Compound 235]	7.00 to 9.00	7.00 to 9.00
CN1CCN(c2ccc(-c3cc4nccnc4c(NC[C@H]4CCCNC4)n3)cc2F)CC1 [Compound 237]	7.00 to 9.00	7.00 to 9.00
CCN1CCN(c2ccc(-c3cc4nccnc4c(NC[C@H]4CCCNC4)n3)cc2F)CC1 [Compound 238]	6.00 to 7.00	7.00 to 9.00
Fc1cc(-c2cc3nccnc3c(NCC3CNCCS3)n2)ccc1N1CCOCC1 (centres unmarked) [Compound 240]	7.00 to 9.00	7.00 to 9.00
CN1CCN(c2ccc(-c3cc4nccnc4c(NCC4CNCCS4)n3)cc2)CC1 (centres unmarked) [Compound 241]	6.00 to 7.00	7.00 to 9.00

Compound	pIC50 (RBL-2H3 cells)	pIC50 (Syk kinase)
C[C@@H]1CN(c2ccc(-c3cc4nccnc4c(NC[C@@H]4CNCCO4)n3)cc2F)C[C@H](C)O1 [Compound 247]	7.00 to 9.00	6.00 to 7.00
FC1(CNc2nc(-c3ccc(N4CCOCC4)cc3)cc3nccnc23)CCCNC1 (centres unmarked) [Compound 251]	7.00 to 9.00	7.00 to 9.00
CN1CCN(c2ccc(-c3cc4nccnc4c(NCC4(F)CCCNC4)n3)cc2)CC1 (centres unmarked) [Compound 253]	6.00 to 7.00	7.00 to 9.00
Fc1cc(-c2cc3nccnc3c(NCC3(F)CCCNC3)n2)ccc1N1CCOCC1 (centres unmarked) [Compound 254]	7.00 to 9.00	7.00 to 9.00
COc1ccc(-c2cc3nccnc3c(NCC3(F)CCCNC3)n2)cc1F (centres unmarked) [Compound 255]	7.00 to 9.00	6.00 to 7.00
CN1CCN(c2ccc(-c3cc4nccnc4c(NC[C@@H]4CNCCO4)n3)cn2)CC1 [Compound 259]	6.00 to 7.00	6.00 to 7.00
CN1CCCN(c2ccc(-c3cc4nccnc4c(NC[C@@H]4CNCCO4)n3)cn2)CC1 [Compound 260]	6.00 to 7.00	6.00 to 7.00
c1cnc2c(NC[C@@H]3CNCCO3)nc(-c3cnn(C4CCOCC4)c3)cc2n1 [Compound 261]	6.00 to 7.00	6.00 to 7.00
CN(c1ccc(-c2cc3nccnc3c(NC[C@@H]3CNCCO3)n2)cn1)C1CCOCC1 [Compound 264]	7.00 to 9.00	7.00 to 9.00
O=C(C1CC1)N1CCN(c2ccc(-c3cc4nccnc4c(NC[C@@H]4CNCCO4)n3)cc2)CC1 [Compound 266]	7.00 to 9.00	7.00 to 9.00
CCC(=O)N1CCN(c2ccc(-c3cc4nccnc4c(NC[C@@H]4CNCCO4)n3)cc2)CC1 [Compound 267]	7.00 to 9.00	7.00 to 9.00
c1cnc2c(NC[C@@H]3CNCCO3)nc(-c3ccc(N4CCCOCC4)nc3)cc2n1 [Compound 269]	7.00 to 9.00	7.00 to 9.00
CN(C)C(=O)C1CCN(c2ccc(-c3cc4nccnc4c(NC[C@@H]4CNCCO4)n3)cc2)CC1 [Compound 270]	6.00 to 7.00	7.00 to 9.00
O=C(CO)N1CCN(c2ccc(-c3cc4nccnc4c(NC[C@@H]4CNCCO4)n3)cc2)CC1 [Compound 272]	7.00 to 9.00	7.00 to 9.00
CC(C)(O)C1CCN(c2ccc(-c3cc4nccnc4c(NC[C@@H]4CNCCO4)n3)cc2)CC1 [Compound 275]	7.00 to 9.00	7.00 to 9.00
CC(Nc1nc(-c2ccc(N3CCOCC3)cc2)cc2nccnc12)C1CNCCO1 (centres unmarked) [Compound 276]	7.00 to 9.00	7.00 to 9.00
CC(Nc1nc(-c2ccc(N3CCOCC3)c(F)c2)cc2nccnc12)C1CNCCO1 (centres unmarked) [Compound 278]	7.00 to 9.00	7.00 to 9.00
COCC(=O)N1CCN(c2ccc(-c3cc4nccnc4c(NC[C@@H]4CNCCO4)n3)cc2)CC1 [Compound 279]	7.00 to 9.00	7.00 to 9.00
CS(=O)(=O)CC(=O)N1CCN(c2ccc(-c3cc4nccnc4c(NC[C@@H]4CNCCO4)n3)cc2)CC1 [Compound 280]	6.00 to 7.00	7.00 to 9.00
CN(c1ccc(-c2cc3nccnc3c(NC[C@@H]3CNCCO3)n2)cc1)C1CCOCC1 [Compound 285]	7.00 to 9.00	7.00 to 9.00
OCCOC1CCN(c2ccc(-c3cc4nccnc4c(NC[C@@H]4CNCCO4)n3)cc2)CC1 [Compound 286]	7.00 to 9.00	7.00 to 9.00
CCS(=O)(=O)N1CCN(c2ccc(-c3cc4nccnc4c(NC[C@@H]4CNCCO4)n3)cc2F)CC1 [Compound 287]	7.00 to 9.00	7.00 to 9.00
FC1(CNc2nc(-c3cnn(C4CCCC4)c3)cc3nccnc23)CCCNC1 (centres unmarked) [Compound 289]	7.00 to 9.00	7.00 to 9.00

Compound	pIC50 (RBL-2H3 cells)	pIC50 (Syk kinase)
FC1(CNc2nc(-c3cnn(C4CCOCC4)c3)cc3nccnc23)CCCNC1 (centres unmarked) [Compound 290]	7.00 to 9.00	7.00 to 9.00
CNc1ccc(-c2cc3nccnc3c(NCC3CNCCC3(F)F)n2)cc1 (centres unmarked) [Compound 291]	7.00 to 9.00	7.00 to 9.00
FC1(F)CCNCC1CNc1nc(-c2ccc(N3CCOCC3)nc2)cc2nccnc12 (centres unmarked) [Compound 292]	7.00 to 9.00	7.00 to 9.00
CN1CCN(c2ccc(-c3cc4nccnc4c(NCC4CNCCC4(F)F)n3)cc2)CC1 (centres unmarked) [Compound 293]	6.00 to 7.00	7.00 to 9.00
Fc1cc(-c2cc3nccnc3c(NCC3CNCCC3(F)F)n2)ccc1N1CCOCC1 (centres unmarked) [Compound 294]	7.00 to 9.00	7.00 to 9.00
Cc1cc(-c2cc3nccnc3c(NCC3CNCCC3(F)F)n2)ccc1N1CCOCC1 (centres unmarked) [Compound 295]	7.00 to 9.00	7.00 to 9.00
COc1ccc(-c2cc3nccnc3c(NCC3CNCCC3(F)F)n2)cc1F (centres unmarked) [Compound 296]	7.00 to 9.00	7.00 to 9.00
CC(C)Oc1ccc(-c2cc3nccnc3c(NCC3CNCCC3(F)F)n2)cc1F (centres unmarked) [Compound 297]	7.00 to 9.00	7.00 to 9.00
COc1ccc(-c2cc3nccnc3c(NCC3CNCCC3(F)F)n2)cc1Cl (centres unmarked) [Compound 298]	7.00 to 9.00	7.00 to 9.00
CNc1ccc(-c2cc3nccnc3c(NCC3CNCCC3(F)F)n2)cc1F (centres unmarked) [Compound 300]	7.00 to 9.00	7.00 to 9.00
CN(C)c1ccc(-c2cc3nccnc3c(NCC3CNCCC3(F)F)n2)cc1F (centres unmarked) [Compound 301]	7.00 to 9.00	7.00 to 9.00
CNc1ccc(-c2cc3nccnc3c(NCC3CNCCC3(F)F)n2)cn1 (centres unmarked) [Compound 302]	7.00 to 9.00	7.00 to 9.00
CN(C)Cc1ccc(-c2cc3nccnc3c(NCC3CNCCC3(F)F)n2)cc1 (centres unmarked) [Compound 303]	6.00 to 7.00	6.00 to 7.00
CN(C)C(=O)c1ccc(-c2cc3nccnc3c(NCC3CNCCC3(F)F)n2)cc1 (centres unmarked) [Compound 304]	7.00 to 9.00	6.00 to 7.00
CC(=O)N1CCN(c2ccc(-c3cc4nccnc4c(NCC4CNCCC4(F)F)n3)cc2)CC1 (centres unmarked) [Compound 305]	7.00 to 9.00	7.00 to 9.00
CNC(=O)COc1ccc(-c2cc3nccnc3c(NCC3CNCCC3(F)F)n2)cc1 (centres unmarked) [Compound 306]	7.00 to 9.00	7.00 to 9.00
FC1(F)CCNCC1CNc1nc(-c2ccc(N3CCNCC3)cc2)cc2nccnc12 (centres unmarked) [Compound 307]	7.00 to 9.00	7.00 to 9.00
CC1CN(c2ccc(-c3cc4nccnc4c(NCC4CNCCC4(F)F)n3)cc2)CCO1 (centres unmarked) [Compound 309]	7.00 to 9.00	7.00 to 9.00
CS(=O)(=O)c1ccc(-c2cc3nccnc3c(NCC3CNCCC3(F)F)n2)cc1 (centres unmarked) [Compound 310]	7.00 to 9.00	7.00 to 9.00
CCn1cc(-c2cc3nccnc3c(NCC3CNCCC3(F)F)n2)cn1 (centres unmarked) [Compound 311]	7.00 to 9.00	7.00 to 9.00
OCCN1CCN(c2ccc(-c3cc4nccnc4c(NCC4CNCCC4(F)F)n3)cc2)CC1 (centres unmarked) [Compound 312]	7.00 to 9.00	7.00 to 9.00
